# In US6737383B1, “Herbicidal oxadiazolidines” (priority 1999, dated 2004):
# What was measured:
# wheat = assay: Test B pre/postemergence wheat; type: in vivo, Triticum aestivum
# How it was run: (§1)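 Response is a visual 0-to-10 score relative to untreated plants, where 0 means no effect and 10 means complete control, taken twelve to sixteen days after application. Treatments went onto soil at planting and onto foliage of 1- to 4-leaf plants, using a surfactant-containing non-phytotoxic solvent.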
# corn = assay: Test B pre/postemergence corn; type: in vivo, Zea mays
# How it was run: as §1
# rape = assay: Test B pre/postemergence rape; type: in vivo, Brassica napus
# How it was run: as §1
# pigweed = assay: Test B pre/postemergence pigweed; type: in vivo, Amaranthus retroflexus
# How it was run: as §1
# soybean = assay: Test B pre/postemergence soybean; type: in vivo, Glycine max
# How it was run: as §1
# giant foxtail = assay: Test B pre/postemergence giant foxtail; type: in vivo, Setaria faberii
# How it was run: as §1
# crabgrass = assay: Test B pre/postemergence crabgrass; type: in vivo, Digitaria sanguinalis
# How it was run: as §1
# rice = assay: Test B flood test rice; type: in vivo, Oryza sativa
# How it was run: (§2)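 Flood test on plants grown to the 2-leaf stage; treated plants kept in greenhouse twelve to sixteen days, then visually rated against controls on a 0 (no effect) to 10 (complete control) scale.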
# sugar beet = assay: Test B pre/postemergence sugar beet; type: in vivo, Beta vulgaris
# How it was run: as §1
# purple nutsedge = assay: Test B pre/postemergence purple nutsedge; type: in vivo, Cyperus rotundus
# How it was run: as §1
# surinam grass = assay: Test B pre/postemergence surinam grass; type: in vivo, Brachiaria decumbens
# How it was run: as §1
# cocklebur = assay: Test B pre/postemergence cocklebur; type: in vivo, Xanthium strumarium
# How it was run: as §1
# blackgrass = assay: Test B pre/postemergence blackgrass; type: in vivo, Alopecurus myosuroides
# How it was run: as §1
# morningglory = assay: Test B pre/postemergence morningglory; type: in vivo, Ipomoea hederacea
# How it was run: as §1
# duck salad = assay: Test B flood test duck salad; type: in vivo, Heteranthera limosa
# How it was run: as §2
# velvetleaf = assay: Test B pre/postemergence velvetleaf; type: in vivo, Abutilon theophrasti
# How it was run: as §1
# wild oat = assay: Test B pre/postemergence wild oat; type: in vivo, Avena fatua
# How it was run: as §1
# smallflower flatsedge = assay: Test B flood test smallflower flatsedge; type: in vivo, Cyperus difformis
# How it was run: as §2
# bamyardgrass = assay: Test B flood test barnyardgrass; type: in vivo, Echinochloa crus-galli
# How it was run: as §2
# [1] = Postemergence, Rate 125 g/ha, scale of 0 to 10 where 0 is no effect and 10 is complete control
# [2] = Postemergence, Rate 250 g/ha, scale of 0 to 10, 0 is no effect, 10 is complete control
# [3] = Postemergence, Rate 1000 g/ha, scale 0 to 10 (0 no effect, 10 complete control)
# [4] = Preemergence, Rate 125 g/ha, scale of 0 to 10 where 0 is no effect and 10 is complete control
# [5] = Preemergence, Rate 250 g/ha, scale 0 to 10 (0 no effect, 10 complete control)
# [6] = Preemergence, Rate 500 g/ha, scale of 0 to 10 where 0 is no effect and 10 is complete control
# [7] = Rate 1000 g/ha, Preemergence, scale 0 to 10 (0 no effect, 10 complete control)
# [8] = Postemergence, Rate 500 g/ha, scale of 0 to 10 where 0 is no effect and 10 is complete control
# [9] = Pre-emergence, Rate 1000 g/ha, scale 0 to 10 (0 no effect, 10 complete control)
# [10] = Rate 125 g/ha, under heading Pre-emergence, flood test species, visual evaluation after twelve to sixteen days
# [11] = Rate 250 g/ha, Pre-emergence (flood test species), scale 0 to 10, 0 is no effect, 10 is complete control
# [12] = Rate 500 g/ha, Pre-emergence section of Table B, 0 to 10 scale (0 no effect, 10 complete control)
compound,measurement,setting,value
COC(=O)C(C)n1c(=O)on(C(=O)N(c2ccc(Cl)cc2)C(C)C)c1=O (stereo not drawn) [Compound 623],"Plant response rating, Wheat",wheat; [1],0
same,Wheat plant response rating,wheat; [2],1
same,Wheat plant response rating,wheat; [3],1
same,Wheat plant response rating,wheat; [4],0
same,"Plant response rating, Wheat",wheat; [5],0
same,"Plant response rating, Wheat",wheat; [6],0
same,"Plant response rating, Wheat",wheat; [7],3
same,"Plant response rating, Corn",corn; [1],0
same,Corn plant response rating,corn; [2],0
same,"Plant response rating, Corn",corn; [8],0
same,Corn plant response rating,corn; [3],0
same,Corn plant response rating,corn; [4],0
same,"Plant response rating, Corn",corn; [5],0
same,"Plant response rating, Corn",corn; [6],0
same,"Plant response rating, Corn",corn; [7],0
same,"Plant response rating, Rape",rape; [1],0
same,Rape plant response rating,rape; [2],0
same,"Plant response rating, Rape",rape; [8],0
same,Rape plant response rating,rape; [3],0
same,Rape plant response rating,rape; [4],0
same,"Plant response rating, Rape",rape; [5],0
same,"Plant response rating, Rape",rape; [6],2
same,"Plant response rating, Rape",rape; [7],2
same,"Plant response rating, Redroot pigweed",pigweed; [1],0
same,Redroot pigweed plant response rating,pigweed; [2],0
same,Redroot pigweed plant response rating,pigweed; [3],5
same,Redroot pigweed plant response rating,pigweed; [4],0
same,"Plant response rating, Redroot pigweed",pigweed; [5],0
same,"Plant response rating, Redroot pigweed",pigweed; [6],0
same,"Plant response rating, Redroot pigweed",pigweed; [7],5
same,"Plant response rating, Soybean",soybean; [1],0
same,Soybean plant response rating,soybean; [2],0
same,Soybean plant response rating,soybean; [3],3
same,Soybean plant response rating,soybean; [4],0
same,"Plant response rating, Soybean",soybean; [5],0
same,"Plant response rating, Soybean",soybean; [6],0
same,"Plant response rating, Soybean",soybean; [7],0
same,"Plant response rating, Giant foxtail",giant foxtail; [1],0
same,Giant foxtail plant response rating,giant foxtail; [2],0
same,"Plant response rating, Giant foxtail",giant foxtail; [8],0
same,Giant foxtail plant response rating,giant foxtail; [3],2
same,Giant foxtail plant response rating,giant foxtail; [4],7
same,"Plant response rating, Giant foxtail",giant foxtail; [5],8
same,"Plant response rating, Giant foxtail",giant foxtail; [6],9
same,"Plant response rating, Giant foxtail",giant foxtail; [7],9
same,"Plant response rating, Crabgrass",crabgrass; [1],0
same,Crabgrass plant response rating,crabgrass; [2],0
same,"Plant response rating, Crabgrass",crabgrass; [8],0
same,Crabgrass plant response rating,crabgrass; [3],3
same,Crabgrass plant response rating,crabgrass; [4],0
same,"Plant response rating, Crabgrass",crabgrass; [5],0
same,"Plant response rating, Crabgrass",crabgrass; [7],0
same,Rice plant response rating,rice; [9],0
same,"Rice plant response rating (0 to 10 scale, 0 is no effect, 10 is complete control)",rice; [10],0
same,Rice plant response rating,rice; [11],0
same,Rice plant response rating,rice; [12],0
same,"Plant response rating, Sugarbeets",sugar beet; [1],0
same,Sugarbeets plant response rating,sugar beet; [2],0
same,Sugarbeets plant response rating,sugar beet; [3],0
same,Sugarbeets plant response rating,sugar beet; [4],0
same,"Plant response rating, Sugarbeets",sugar beet; [5],0
same,"Plant response rating, Sugarbeets",sugar beet; [6],2
same,"Plant response rating, Sugarbeets",sugar beet; [7],7
same,"Plant response rating, Nutsedge",purple nutsedge; [1],0
same,Nutsedge plant response rating,purple nutsedge; [2],0
same,Nutsedge plant response rating,purple nutsedge; [4],0
same,"Plant response rating, Nutsedge",purple nutsedge; [5],0
same,"Plant response rating, Nutsedge",purple nutsedge; [6],0
same,"Plant response rating, Nutsedge",purple nutsedge; [7],0
same,"Plant response rating, B. signalgrass",surinam grass; [1],0
same,B. signalgrass plant response rating,surinam grass; [2],0
same,"Plant response rating, B. signalgrass",surinam grass; [8],0
same,B. signalgrass plant response rating,surinam grass; [3],0
same,B. signalgrass plant response rating,surinam grass; [4],0
same,"Plant response rating, B. signalgrass",surinam grass; [5],0
same,"Plant response rating, B. signalgrass",surinam grass; [6],2
same,"Plant response rating, B. signalgrass",surinam grass; [7],4
same,"Plant response rating, Cocklebur",cocklebur; [1],0
same,Cocklebur plant response rating,cocklebur; [2],0
same,"Plant response rating, Cocklebur",cocklebur; [8],0
same,Cocklebur plant response rating,cocklebur; [3],0
same,Cocklebur plant response rating,cocklebur; [4],0
same,"Plant response rating, Cocklebur",cocklebur; [5],0
same,"Plant response rating, Cocklebur",cocklebur; [6],0
same,"Plant response rating, Cocklebur",cocklebur; [7],0
same,"Plant response rating, Blackgrass",blackgrass; [1],3
same,Blackgrass plant response rating,blackgrass; [2],4
same,"Plant response rating, Blackgrass",blackgrass; [8],6
same,Blackgrass plant response rating,blackgrass; [3],7
same,Blackgrass plant response rating,blackgrass; [4],0
same,"Plant response rating, Blackgrass",blackgrass; [5],0
same,"Plant response rating, Blackgrass",blackgrass; [7],2
same,"Plant response rating, Morningglory",morningglory; [1],6
same,Morningglory plant response rating,morningglory; [2],8
same,"Plant response rating, Morningglory",morningglory; [8],10
same,Morningglory plant response rating,morningglory; [3],10
same,Morningglory plant response rating,morningglory; [4],0
same,"Plant response rating, Morningglory",morningglory; [5],0
same,"Plant response rating, Morningglory",morningglory; [6],0
same,"Plant response rating, Morningglory",morningglory; [7],0
same,Ducksalad plant response rating,duck salad; [9],0
same,"Ducksalad plant response rating (0 to 10 scale, 0 is no effect, 10 is complete control)",duck salad; [10],0
same,Ducksalad plant response rating,duck salad; [11],0
same,Ducksalad plant response rating,duck salad; [12],0
same,"Plant response rating, Velvetleaf",velvetleaf; [1],0
same,Velvetleaf plant response rating,velvetleaf; [2],0
same,Velvetleaf plant response rating,velvetleaf; [3],2
same,Velvetleaf plant response rating,velvetleaf; [4],0
same,"Plant response rating, Velvetleaf",velvetleaf; [5],0
same,"Plant response rating, Velvetleaf",velvetleaf; [6],0
same,"Plant response rating, Velvetleaf",velvetleaf; [7],0
same,"Plant response rating, Wild oats",wild oat; [1],0
same,Wild oats plant response rating,wild oat; [2],0
same,Wild oats plant response rating,wild oat; [3],2
same,Wild oats plant response rating,wild oat; [4],0
same,"Plant response rating, Wild oats",wild oat; [5],0
same,"Plant response rating, Wild oats",wild oat; [6],2
same,"Plant response rating, Wild oats",wild oat; [7],2
same,S. Flatsedge plant response rating,smallflower flatsedge; [9],0
same,"S. Flatsedge plant response rating (0 to 10 scale, 0 is no effect, 10 is complete control)",smallflower flatsedge; [10],0
same,S. Flatsedge plant response rating,smallflower flatsedge; [11],0
same,S. Flatsedge plant response rating,smallflower flatsedge; [12],0
same,Barnyardgrass plant response rating,bamyardgrass; [9],0
same,"Barnyardgrass plant response rating (0 to 10 scale, 0 is no effect, 10 is complete control)",bamyardgrass; [10],0
same,Barnyardgrass plant response rating,bamyardgrass; [11],0
same,Barnyardgrass plant response rating,bamyardgrass; [12],0
